Entries after “also recorded” stand apart in the source; their conditions may differ. Bridge positions count the residues as written; N and C are the ends. Square brackets hold non-standard residues; d marks the D form. Peptide text beside a SMILES is read from it. R8 = C=CCCCCCC[C@@](C)(N)C(=O)O; S5 = C=CCCC[C@](C)(N)C(=O)O
Key:
APC/C [1] = target: T1, APC/C (Homo sapiens, UniProt Q9NYG5); test: In vitro APC/C ubiquitination assay driven by the E2 enzyme UBE2C, fluorophore-labelled securin substrate; format: biochemical
T1 construct: made in house; host or cells: SF9 insect cells (baculovirus)
Procedure: (§1) Proteins were separated by SDS-PAGE electrophoresis using precast Bolt 4-12% Bis-Tris Plus protein gels (Thermo Fisher Scientific) and Criterion XT Bis-Tris Midi Protein Gels (Bio-Rad). In different experiments, various conditions were used: in vitro APC/C ubiquitination assays—165 V, 40 min, SDS-MES running buffer (50 mM MES, 50 mM Tris base, 0.1% SDS, 1 mM EDTA, pH 7.3; Thermo Fisher Scientific); in vitro APC/C ubiquitination assays determining KM—165V, 1 h, SDS-MOPS running buffer (50 mM MOPS, 50 mM Tris base, 0.1% SDS, 1 mM EDTA, pH 7.7; Thermo Fisher Scientific); pull-down binding assay—165 V, 35 min, SDS-MES running buffer.
APC/C-dependent ubiquitination reactions were performed at 30° C. in 30 mM HEPES pH 7.4, 175 mM NaCl, 8 mM MgCl2, 0.05% Tween-20, 1 mM DTT and 5% glycerol and contained 20 nM recombinant APC/C (note, for testing the first generation of inhibitors, APC/C and Cdc20 immunoprecipitated from mitotic HeLa K cells was used), 340 nM Cdc20, 46 nM GST-UBA1, 340 nM UBE2C (alternatively 400 nM UBE2D1, 280 nM UBE2S), 21 μM His6-ubiquitin or if it is indicated 21 μM methylated-ubiquitin (BostonBiochem), 2.6 mM ATP, 10 mM phosphocreatine and 11 μM creatine kinase. As substrates, 35 nM fluorophore-labeled ubiquitin-cyclin B and 50 nM fluorophore-labeled securin were standardly used (fluorophore IRDye 800CW (LI-COR) was used for labelling). In case of KM and kcat determination, 50, 100, 250, 500, 750, 1000, 1250, 2500 and 5000 nM fluorophore-labelled securin was used. The reaction was done in the volume of 15 μl, it was quenched after the indicated time with LDS sample buffer (Thermo Fisher Scientific) supplemented with 100 mM DTT and subjected to SDS-PAGE. Detection of fluorescently labelled substrates was done by quantitative near-infrared scanning system Odyssey.

APC/C [2] = target: T1, APC/C; test: In vitro APC/C ubiquitination assay with different E2 enzymes (UBE2C, UBE2D, UBE2S), Ub-cyclin B1 substrate; format: biochemical; settings: 100 μM, reaction time 40 min
Procedure: as §1
APC/C-dependent ubiquitination reactions were performed at 30° C. in 30 mM HEPES pH 7.4, 175 mM NaCl, 8 mM MgCl2, 0.05% Tween-20, 1 mM DTT and 5% glycerol and contained 20 nM recombinant APC/C (note, for testing the first generation of inhibitors, APC/C and Cdc20 immunoprecipitated from mitotic HeLa K cells was used), 340 nM Cdc20, 46 nM GST-UBA1, 340 nM UBE2C (alternatively 400 nM UBE2D1, 280 nM UBE2S), 21 μM His6-ubiquitin or if it is indicated 21 μM methylated-ubiquitin (BostonBiochem), 2.6 mM ATP, 10 mM phosphocreatine and 11 μM creatine kinase. […] Detection of fluorescently labelled substrates was done by quantitative near-infrared scanning system Odyssey.

APC/C (APC11) = target: T2, APC/C (APC11) (Homo sapiens, UniProt Q9NYG5); test: Pull-down binding assay in HeLa K cell extract, APC/C; settings: Pra peptide clicked to azide agarose or magnetic beads, Western blot
T2 construct: endogenous in cells; host or cells: HeLa K cell extract
Procedure: For the protein transfer, the 0.45 μm Immobilon-FL PVDF membrane (Merck Millipore) was used. The membrane was activated in ethanol and then transferred to the Blotting buffer (50 mM SDS-MOPS, 50 mM Tris base, 0.1% SDS, 1 mM EDTA, 20% EtOH). The proteins were transferred using a wet transfer for 1.5 h at 400 mA. Subsequently, the membrane was incubated with the blocking solution, 10% milk in PBS-T (0.02% Tween-20 in PBS), for 1 h at room temperature. To detect proteins of the interest, the membrane was incubated with primary antibodies overnight at 4° C. Followed by washing the membrane 3 times 10 min with PBS-T and incubation with IRDye fluorescently labelled secondary antibodies for 1 h. Prior detection, the membrane was twice washed with PBS-T for 10 min and once with PBS for 10 min. The detection was done using the quantitative near-infrared scanning system Odyssey (LI-COR Biosciences).
HeLa K cell pellet was re-suspended in the extraction buffer (30 mM HEPES pH 7.5, 175 mM NaCl, 2.5 mM MgCl2, 0.25% NP40, 10% glycerol, 1 mM DTT) supplemented with 10 μM MG132 (VWR), 1 mM PMSF (Sigma-Aldrich), complete protease inhibitor cocktail (Roche) and PhosSTOP phosphatase inhibitors (Roche) and incubated for 20 min on ice, followed by centrifugation of cell debris for 15 min at 4° C. 16 100 g. In mean time, inhibitor molecules containing Propargyl (Pra) chemical group were covalently attached to the azide agarose or azide magnetic resin (Jena Bioscience) by Cu(I)-catalysed azide-alkyne cycloaddition reaction. Specifically, the inhibitor molecules were mixed with azide agarose resin in ratio 0.125 μmol inhibitor/25 μl agarose resin and azide magnetic resin in ratio 0.018 μmol inhibitor/20 μl magnetic resin. The reaction was catalysed by 1 mM CuSO4, 0.1 mM TBTA (Sigma-Aldrich) and 1 mM Sodium ascorbate and was performed on the rotating wheel for 30 min at room temperature in the volume of 1 ml. Subsequently, the resin was washed 5 times with the extraction buffer. The inhibitor-agarose resin was added to 1 mg of HeLa K cell extract and the inhibitor-magnetic resin was added to 0.5 mg of HeLa K cell extract followed by incubation at 4° C. for 2 h. Followed by washing the resin 5 times with the extraction buffer. Pull-down proteins were eluted by boiling for 15 min with 1×LDS sample buffer supplemented with 100 mM DTT (agarose resin) or by incubation with 1×LDS sample buffer for 10 min at room temperature followed by taking supernatant that was supplemented with 100 mM DTT and boiling it for 10 min. Samples were subjected to SDS PAGE and Western blot analysis.
HeLa K cell pellet was re-suspended in the extraction buffer (30 mM HEPES pH 7.5, 175 mM NaCl, 2.5 mM MgCl2, 0.25% NP40, 10% glycerol, 1 mM DTT supplied with complete protease inhibitor cocktail (Roche), PhosSTOP phosphatase inhibitors (Roche), 1 mM PMSF, 10 μM MG132) and incubated for 20 min on ice, followed by centrifugation to clear the lysate for 15 min at 4° C. 16,100 g. In the meantime, inhibitor molecules containing the propargyl-Gly-OH (Pra) chemical group were covalently attached to the azide agarose resin (Jena Bioscience) by Cu(I)-catalysed azide-alkyne cycloaddition reaction. Specifically, the inhibitor molecules were mixed with azide agarose resin in ratio 0.125 μmol inhibitor/20 μl agarose resin. The reaction was catalysed by 0.1 mM CuSO4, 0.5 mM THPTA (Sigma-Aldrich) and 5 mM Sodium ascorbate and was performed on the rotating wheel for 30 min at room temperature in the volume of 1 ml. […]

APC/C [3] = test: Ubiquitinated securin (Mean ± SD); settings: 100 µM
Excerpt: Table printed on a drawing sheet, Figure 6
Head of the field: Ubiquitinated securin (Mean ± SD)

HeLa K cells = test: Live cell imaging of HeLa K cells; format: cell-based, human; settings: 50 μM
Procedure: Automated time-lapse microscopy was performed using ImageXpress Micro XLS wide-field screening microscope (Molecular Devices) equipped with a 10×, 0.5 NA., 20×, 0.7 NA, and 40×, 0.95 NA Plan Apo air objectives (Nikon), a laser-based autofocus and a full environmental control (5% CO2, 37° C.). Cells were grown in 96-well plastic bottom plates (clear, Greiner Bio-One) and for live cell imaging media was changed to DMEM without phenol red and riboflavin (Thermo Fisher Scientific), supplemented with 10% (v/v) FBS, 1% (v/v) Glutamax, 1% (v/v) penicillin-streptomycin, and 0.5 μg/ml amphotericin B.
HeLa K cells were seeded into 96-well plates (4000-4500 cells) one day prior the treatment with compounds of the invention. Cells were treated with 50 μM of compound G3_mod1_mini PEG and cell division was monitored by live cell imaging using ImageXpress Micro XLS wide-field screening microscope, images were acquired every 3 min for time courses of 48 h. The length of mitosis was determined manually.
(§2) Automated time-lapse microscopy was performed using ImageXpress Micro XLS wide-field screening microscope (Molecular Devices) equipped with a 10×, 0.5 NA., 20×, 0.7 NA, and 40×, 0.95 NA Plan Apo air objectives (Nikon), a laser-based autofocus and a full environmental control (5% CO2, 37° C.). Cells were grown in 96-well plastic bottom plates (clear, Greiner Bio-One) and for live cell imaging media was changed to imaging media. Imaging media for A549, HeLa K and SW480 was DMEM without phenol red and riboflavin (Thermo Fisher Scientific), supplemented with 10% (v/v) FBS, 1% (v/v) Glutamax, and 1% (v/v) penicillin-streptomycin; imaging media for HT-1080 and RKO was RPMI 1640 without phenol red (Thermo Fisher Scientific), supplemented with 10% (v/v) FBS, and 1% (v/v) penicillin-streptomycin.
(§3) A549 (5000-5500 cells), HeLa K (3000-4000 cells), HT-1080 (4000 cells), RKO (5000 cells), and SW480 (7000-8000 cells) cells were seeded into 96-well plates one day prior to treatment with compounds of the invention. Cells were treated with 50 μM of compound G3_mod1_mini PEG and cell division was monitored by live cell imaging using an ImageXpress Micro XLS wide-field screening microscope and images were acquired every 3 min for time courses of 24 h. The length of mitosis was determined manually.

A549 cells = test: Live cell imaging of A549 cells; format: cell-based, human; settings: A549, 50 μM, imaged 24 h
Procedure: as §2, §3

HT-1080 cells = test: Live cell imaging of HT-1080 cells; format: cell-based, human; settings: HT-1080, 50 μM, imaged 24 h
Procedure: as §2, §3

RKO cells = test: Live cell imaging of RKO cells; format: cell-based, human; settings: 50 μM, imaged 24 h
Procedure: as §2, §3

SW480 cells = test: Live cell imaging of SW480 cells; format: cell-based, human; settings: SW480, 50 μM, imaged 24 h
Procedure: as §2, §3

Row | difference between KM without and with inhibitor (APC/C [1]; 3 μM G3-6, securin titration, unpaired t test p=0.0886) | IC50 (APC/C [1]; UBE2C, 0.01-100 μM, reaction time 10 min, methylated ubiquitin, ubiquitinated securin, 4 independent experiments) [µM] | Ki (APC/C [1]; model for non-competitive inhibition in Prism 6.0, 3 μM inhibitor, securin 50-5000 nM, reaction time 2 min, read-out: inhibitory constant (Ki)) [µM] | mechanism of action (type of the inhibition) (APC/C [1]; titration of substrate (securin)) | IC50 (in words) (APC/C [1]; titration of the G3-6 molecule) | binding to the APC/C (pull-down) (APC/C (APC11)) | Compound | inhibition of APC/C activity in vitro compared with TAME (APC/C [1]; 100 μM, UBE2C, reaction time 45 min, 3 independent assays) | inhibition of APC/C activity in vitro, titration (APC/C [1]; 25, 50, 75 and 100 μM, UBE2C, reaction time 45 min) | inhibition of APC/C activity driven by different E2 enzymes (APC/C [2]) | Ubiquitinated securin (Mean ± SD) (APC/C [3]) [%] | cell fate (cell death) (HeLa K cells; imaged 24 h) | effect on mitosis (length of mitosis) (HeLa K cells; imaged 24 h) | cell fate (cell death) (HeLa K cells; imaged 48 h) | effect on mitosis (length of mitosis) (HeLa K cells; imaged 48 h) | effect on mitosis (length of mitosis) (A549 cells) | cell fate (cell death) (HT-1080 cells) | effect on mitosis (length of mitosis) (HT-1080 cells) | effect on mitosis (length of mitosis) (RKO cells) | cell fate (cell death) (SW480 cells) | effect on mitosis (length of mitosis) (SW480 cells)
1 | not significant | 1.96 | 5 | non-competitive inhibitor | low micromolar range | binds specifically to the APC/C | CC[C@H](C)[C@@H]1NC(=O)[C@H](CCC(=O)O)NC(=O)[C@H](CCCCN)NC(=O)[C@H]([C@@H](C)CC)NC(=O)[C@](C)(NC(=O)[C@H](Cc2c[nH]c3ccccc23)NC(=O)[C@H](Cc2c[nH]c3ccccc23)NC(=O)[C@H](CCC(=O)O)NC(C)=O)CCCCCCC=CCCC[C@@](C)(C(=O)N[C@@H](CCCNC(=N)N)C(=O)N[C@@H](CCCNC(=N)N)C(=O)N[C@@H](C)C(N)=O)NC(=O)[C@H](CCCNC(=N)N)NC(=O)[C@H](CCC(N)=O)NC1=O [G3-6, Ac-cyclo(4,11)-EWWZIKEIQRXRRA-NH2] (Ac-EWW[R8]IKEIQR[S5]RRA-NH2; staple 4-11) | inhibit APC/C in vitro more efficiently than TAME | inhibits APC/C in vitro the most potently | inhibits APC/C in vitro independently on employed E2 enzymes | 3.6 ± 5 | – | – | – | – | – | – | – | – | – | –
2 | – | – | – | – | – | – | Ac-GFWFG-NH(CH2)2OCH2CO-cyclo(4,11)-EWWZIKEIQRXRRA-NH2 ({Ac-Gly-Phe-Trp-Phe-Gly-miniPEG}-EWW[R8]IKEIQR[S5]RRA-NH2; staple 4-11) [G3-6_mod1_miniPEG] | – | – | – | – | cause cell death after a metaphase arrest in a subpopulation | prolongs mitosis | causes cell death after metaphase | prolongs mitosis by arresting cells in metaphase; also recorded: induces a metaphase delay | prolongs mitosis | cause cell death after a metaphase arrest in a subpopulation | prolongs mitosis | prolongs mitosis | cause cell death after a metaphase arrest in a subpopulation | prolongs mitosis

Reference: patent US20230391828A1, “REGULATORS OF CELL DIVISION” (TECHNISCHE UNIVERSITÄT DRESDEN, priority 2020, published 2023)
